Assay results reported in patent publication US20220041641A1, “QUATERNARY AMMONIUM SALTS AS INHIBITORS OF TRIMETHYLAMINE PRODUCTION” (Senda Biosciences, Inc., priority 2018, published 2022).
Where a name gives a salt, the structure may show the parent alone. Values belong to the molecule of their own block, whether it stands above or below them.

Tests used:
[1] = type: in vitro ADME; settings: simulated gi fluid, 1 µM, pH 1.6
Method: This assay was used to assess the stability of a conjugate in a stomach.
Medium was prepared by dissolving 2 g of sodium chloride in 0.6 L in ultrapure water (MilliQ®, Millipore Sigma, Darmstadt, Germany). The pH was adjusted to 1.6 with 1N hydrochloric acid, and the volume was then adjusted to 1 L with purified water.
60 mg FaSSIF powder (Biorelevant™, London, UK) were dissolved in 500 mL buffer (above). Pepsin was added (0.1 mg/mL) (Millipore Sigma, Darmstadt, Germany), and the solution was stirred. The resulting SGF media were used fresh for each experiment.
(§1) Test compounds were dissolved in DMSO stock to 1 mM. An aliquot of the DMSO stock solution was removed and diluted in the SGF Media in 15 mL falcon tubes to generate a total compound concentration of 1 μM. A 1 mL aliquot was immediately removed and diluted once with 1 volume of acetonitrile for T0 timepoint. The mixture was sealed and mixed at 37° C. in an incubator. Aliquots (1 mL) were removed at regular intervals and immediately quenched by the addition of 1 volume of acetonitrile. The resulting samples were analyzed by LCMS to determine degradation rates in SGF.

[2] = type: in vitro ADME; settings: simulated gi fluid, 1 µM, pH 6.7
Method: This assay was used to assess the stability of a conjugate in a small intestine.
Phosphate buffer was prepared by dissolving 0.42 g of sodium hydroxide pellets and 3.95 g of monobasic sodium phosphate monohydrate and 6.19 g of sodium chloride in ultrapure water (MilliQ®, Millipore Sigma, Darmstadt, Germany). The pH was adjusted to 6.7 using aq. HCl and aq. NaOH, as necessary, and the solution was diluted with ultrapure water to produce 1 L of the pH 6.7 buffer.
112 mg FaSSIF powder (Biorelevant™, London, UK) was dissolved in 50 mL of the pH 6.7 buffer. 2 to 3 mL of the resulting solution were then added to 500 mg pancreatin (Millipore Sigma, Darmstadt, Germany). The resulting mixture was agitated by finger tapping the vessel containing the mixture until milky suspension formed. At this time, the remainder of the 50 mL FaSSiF/pH 6.7 buffer solution was added. The resulting suspension was flipped upside down 10 times to produce SIF, which was used fresh.
as §1, with “SIF media” for “SGF Media”, “produce” for “generate”, “mixture with a tested” for “total”, “agitated” for “mixed”, “rates.” for “rates in SGF.”

[3] = type: in vitro ADME; settings: 1 µM
Method: This assay was used to assess the stability of a conjugate in a large intestine.
All experiments were performed in an anaerobic chamber containing 90% nitrogen, 5% hydrogen and 5% carbon dioxide. Colonic material was resuspended as a slurry (15% w/v final concentration) in pre-reduced, anaerobically sterilized dilution blanks (Anaerobe Systems AS-908). The colonic material was then inoculated into 96 well plates containing YCFAC media (Anaerobe Systems AS-680, 6.7 μL slurry into 1 mL total media). A compound was added to each individual well to reach a final analyte concentration of 1 μM, and the material was mixed by pipetting. Each sample was removed after set timepoints (0, 120, 240, 480, 1440, 2880 minutes after initiation of the assay), quenched with acetonitrile containing internal standard, and analyzed by LCMS.

[4] = biological target: CutC from Proteus mirabilis (Proteus mirabilis, UniProt B4EYG1); assay: Cell-based assay for TMA production from a native producer (P. mirabilis); settings: d9-TMA from 1 mM d9-choline, 5 h, 37° C.; value 10 given when no fit or % TMA remaining at 10 μM higher than 15%; read-out: Average IC50 Whole cell P. mirabilis
CutC from Proteus mirabilis, sequence (B4EYG1 entry or part of it): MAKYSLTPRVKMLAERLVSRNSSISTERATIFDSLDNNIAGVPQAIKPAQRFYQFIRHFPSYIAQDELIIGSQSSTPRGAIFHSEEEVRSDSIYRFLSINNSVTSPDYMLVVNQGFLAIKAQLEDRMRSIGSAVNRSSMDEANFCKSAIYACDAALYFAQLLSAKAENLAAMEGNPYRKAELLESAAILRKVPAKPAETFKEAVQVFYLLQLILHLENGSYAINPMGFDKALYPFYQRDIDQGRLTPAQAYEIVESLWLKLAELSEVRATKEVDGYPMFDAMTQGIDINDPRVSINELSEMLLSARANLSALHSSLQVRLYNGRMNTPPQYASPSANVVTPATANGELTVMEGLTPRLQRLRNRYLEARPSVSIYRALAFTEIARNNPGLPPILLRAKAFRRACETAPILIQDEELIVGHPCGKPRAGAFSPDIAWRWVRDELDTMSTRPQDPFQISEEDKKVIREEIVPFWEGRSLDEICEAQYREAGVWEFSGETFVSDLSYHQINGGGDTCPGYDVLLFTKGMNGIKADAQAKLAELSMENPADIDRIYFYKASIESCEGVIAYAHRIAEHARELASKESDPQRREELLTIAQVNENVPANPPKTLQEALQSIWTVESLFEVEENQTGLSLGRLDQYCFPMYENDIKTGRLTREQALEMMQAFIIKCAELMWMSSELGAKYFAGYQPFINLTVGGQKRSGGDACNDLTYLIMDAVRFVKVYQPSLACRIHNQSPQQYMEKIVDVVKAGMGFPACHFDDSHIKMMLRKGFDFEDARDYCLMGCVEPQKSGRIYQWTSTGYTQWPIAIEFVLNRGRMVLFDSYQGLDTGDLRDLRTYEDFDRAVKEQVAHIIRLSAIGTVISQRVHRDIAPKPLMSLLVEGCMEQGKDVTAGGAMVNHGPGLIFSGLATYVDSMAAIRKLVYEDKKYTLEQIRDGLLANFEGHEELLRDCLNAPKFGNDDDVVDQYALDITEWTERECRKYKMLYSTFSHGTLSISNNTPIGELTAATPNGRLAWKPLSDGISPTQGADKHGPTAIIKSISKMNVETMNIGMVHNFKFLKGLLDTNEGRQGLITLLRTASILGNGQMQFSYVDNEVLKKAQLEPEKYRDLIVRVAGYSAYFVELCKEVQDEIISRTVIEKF
CutC from Proteus mirabilis, sequence (B4EYG0 entry or part of it, further chain): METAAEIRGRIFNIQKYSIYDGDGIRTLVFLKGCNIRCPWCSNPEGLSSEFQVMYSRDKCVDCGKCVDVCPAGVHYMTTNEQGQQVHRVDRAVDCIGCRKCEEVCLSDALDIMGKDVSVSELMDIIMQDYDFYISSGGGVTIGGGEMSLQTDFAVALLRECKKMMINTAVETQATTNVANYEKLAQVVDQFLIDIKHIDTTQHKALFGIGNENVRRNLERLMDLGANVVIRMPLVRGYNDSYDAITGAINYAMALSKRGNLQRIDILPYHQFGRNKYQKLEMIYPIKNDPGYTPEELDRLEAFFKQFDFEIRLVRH
Outline: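 Overnight anaerobic cultures of P. mirabilis or C. sporogenes, grown in BHI with 1 mM choline, were diluted and given 1 mM (trimethyl-d9)-choline plus compound at 10 μM final. After 5 h at 37° C., d9-TMA was quantified by LCMS.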

CutC/D enzyme = assay: Acute mouse model (plasma TMAO on choline diet); type: in vivo, male C57BL/6 mice
Method: The following acute mouse model may be used to determine inhibition of the CutC/D enzyme and thus the inhibition of the formation of trimethylamine (TMA) from choline.
On day 1, male C57BL/6 mice were given a chemically defined diet (Tekland Global Rodent Diet 2018) containing 1.0% choline (g/g) for the duration of the experiment. Concurrently on day 1, mice were orally gavaged with 200 μL of compounds of interest (formulated in water). Mice were orally gavaged with the compounds and vehicle control again on day 2 and day 3 at a fixed time. Twenty hours after the last gavage, mice were sacrificed, and plasma was collected and prepared for detection of trimethylamine-N-oxide (TMAO) via liquid chromatography with on-line tandem mass spectrometry (LC-MS/MS). Food consumption and mouse weight were measured each day.
Plasma samples were prepared for LCMS as follows: An aliquot of 20 μL plasma sample was protein precipitated with 200 μL internal standard solution (100 ng/mL Labetalol & 100 ng/mL Tolbutamide & 100 ng/mL Diclofenac in acetonitrile, the mixture was vortex-mixed and centrifuged at 4000 rpm for 15 min, 4° C. An aliquot of 100 μL supernatant was transferred to the sample plate for LCMS injection. 1 μL of sample was injected onto an LC column for TMAO LCMS analysis.
Concentrations of TMAO were determined with a calibration curve ranging 0.05-100 μM for d9-TMAO in control plasma.

in vivo = assay: in vivo; design: species or system Sprague-Dawley rats; settings: Sprague-Dawley, rat
Method: Sprague-Dawley rats (three rats per compound) were treated with a single intravenous (IV) 1 mg/kg dose or orally (PO) a single 10 mg/kg dose. Plasma concentrations of the conjugates were determined by LCMS at 5 minutes, 15 minutes, 30 minutes, 1 hour, 2 hours, 4 hours, 8 and 24 hours post compound administration. […] In addition, the plasma exposure and bioavailability of the active agent of was lower when dosed as a conjugate instead of the active agent alone.

[5] = Caco-2 permeability assay; type: in vitro ADME; settings: human, Caco-2, pH 7.4
Method: Preparation of Caco-2 Cells: 50 μL and 25 mL of cell culture medium were added to each well of the Transwell insert and reservoir, respectively. The HTS transwell plates were incubated at 37° C., 5% CO2 for 1 hour before cell seeding. […] Cell culture medium was replaced every other day, beginning no later than 24 hours after initial plating.
Assessment of Cell Monolayer Integrity: Medium was removed from the reservoir and each Transwell insert and replaced with prewarmed fresh culture medium. Transepithelial electrical resistance (TEER) across the monolayer was measured using Millicell Epithelial Volt-Ohm measuring system (Millipore, USA). The Plate was returned to the incubator once the measurement was done. The TEER value was calculated according to the following equation: […]
Preparation of Solutions: 2 mM stock solutions in DMSO of control compounds were prepared and diluted with HBSS (10 mM HEPES, pH 7.4) to get 10 μM working solution. 0.2 mM stock solutions of test compounds in DMSO were prepared and diluted with HBSS (10 mM HEPES, pH 7.4 with 0.5% BSA) to get 1 μM working solution. Metoprolol, erythromycin and cimetidine were used as control compounds.
The Caco-2 plate was removed from the incubator. The monolayer was washed twice with pre-warmed HBSS (10 mM HEPES, pH 7.4). The plate was incubated at 37° C. for 30 minutes. To determine the rate of drug transport in the apical to basolateral direction, 125 μL of the working solution was added to the Transwell insert (apical compartment). A 50 μL sample was transferred immediately from the apical compartment to 200 μL of acetonitrile containing IS (100 nM alprazolam, 200 nM Caffeine and 100 nM tolbutamide) in a new 96-well plate as the initial donor sample (A-B) and it was vortexed at 1000 rpm for 10 minutes. The wells in the receiver plate (basolateral compartment) were filled with 235 μL of transport buffer. To determine the rate of drug transport in the basolateral to apical direction, 285 μL of the working solution were added to the receiver plate wells (basolateral compartment). A 50 μL sample was transferred immediately from the basolateral compartment to 200 μL of acetonitrile containing IS (100 nM alprazolam, 200 nM Caffeine and 100 nM tolbutamide) in a new 96-well plate as the initial donor sample (B-A) and it was vortexed at 1000 rpm for 10 minutes. The Transwell insert (apical compartment) was filled with 75 μL of transport buffer. The apical to basolateral direction and the basolateral to apical direction need to be done at the same time. The plates were incubated at 37° C. for 2 hours. At the end of the incubation, 50 μL samples from donor sides (apical compartment for Ap→Bl flux, and basolateral compartment for B1→Ap) and receiver sides (basolateral compartment for Ap→Bl flux, and apical compartment for B1→Ap) were transferred to wells of a new 96-well plate, followed by the addition of 4 volume of acetonitrile containing IS (100 nM alprazolam, 200 nM Caffeine and 100 nM tolbutamide). Samples were vortexed for 10 minutes, 50 μL samples were transferred to wells of a new 96-well plate, followed by the addition of 50 μL Hepes and 200 μL IS. All samples were vortexed for 10 minutes, and then centrifuged at 3,220 g for 40 minutes. An aliquot of 150 μL of the supernatant was mixed with an appropriate volume of ultra-pure water before LC-MS/MS analysis.
Apparent permeability (Papp) can be calculated for drug transport assays using the following equation: […]
Papp is apparent permeability (cm/s×10^−6);
Papp (B-A) indicates the apparent permeability coefficient in basolateral to apical direction, and
Papp (A-B) indicates the apparent permeability coefficient in apical to basolateral direction.

Structure (SMILES): C#CC[N+](C)(C)CC(=O)O[C@@H]1O[C@H](COC(C)=O)[C@@H](OC(C)=O)[C@H](OC(C)=O)[C@H]1OC(C)=O [Compound 303, N,N-dimethyl-N-(2-oxo-2-(((2S,3R,4S,5R,6R)-3,4,5-triacetoxy-6-(acetoxymethyl)tetrahydro-2H-pyran-2-yl)oxy)ethyl)prop-2-yn-1-aminium Trifluoroacetate]
Assay 1- FaSSGF Stability: % Remaining at 1 hr [1]: 60.49% | Assay 2- FaSSIF Stability: % Remaining at 4 hr [2]: 0.03% | Assay 3- Colonic Material Stability Assay % Remaining at 24 hr [3]: 0.16%

Structure (SMILES): C#CC[N+](C)(C)CC(=O)OC[C@H]1OC(OC(C)=O)[C@H](OC(C)=O)[C@@H](OC(C)=O)[C@@H]1OC(C)=O.O=C([O-])C(F)(F)F (stereo partly drawn) [Compound 304, N,N-dimethyl-N-(2-oxo-2-(((2R,3R,4S,5R)-3,4,5,6-tetraacetoxytetrahydro-2H-pyran-2-yl)methoxy)ethyl)prop-2-yn-1-aminium Trifluoroacetate]
Assay 1- FaSSGF Stability: % Remaining at 1 hr [1]: 114.28% | Assay 2- FaSSIF Stability: % Remaining at 4 hr [2]: 13.44% | Assay 3- Colonic Material Stability Assay % Remaining at 24 hr [3]: 0.94%

Structure (SMILES): CC(=O)OC[C@H]1O[C@@H](OCC[N+](C)(CF)C2CC2)[C@H](OC(C)=O)[C@@H](OC(C)=O)[C@@H]1OC(C)=O.[I-] (stereo partly drawn) [Compound 86, N-(fluoromethyl)-N-methyl-N-(2-{[(2R,3R,4S,5R,6R)-3,4,5-tris(acetyloxy)-6-[(acetyloxy)methyl]oxan-2-yl]oxy}ethyl)cyclopropanaminium Iodide]
IC50 [4]: ≥ 10 µM | % change from vehicle control + choline diet (CutC/D enzyme; Table 4g, 37.3 mg/kg oral gavage days 1-3): −33% | Mean plasma TMAO (CutC/D enzyme; Table 4g, 37.3 mg/kg oral gavage days 1-3, plasma 20 h after last gavage): 18.6 µM | % change from vehicle control + choline diet (CutC/D enzyme; Table 4g, 112 mg/kg oral gavage days 1-3): −83% | Mean plasma TMAO (CutC/D enzyme; Table 4g, 112 mg/kg oral gavage days 1-3, plasma 20 h after last gavage): 4.72 µM | Assay 3- Colonic Material Stability Assay % Remaining at 24 hr [3]: 56%

IC50 [4]: ≥ 10 µM | Assay 1- FaSSGF Stability: % Remaining at 1 hr [1]: 102.71% | Assay 3- Colonic Material Stability Assay % Remaining at 24 hr [3]: 110%
Structure (SMILES): C#CC[N+](C)(C)CCO[C@@H]1CO[C@H]2[C@@H]1OC[C@@H]2O [Compound 72, N-(2-(((3R,3aR,6S,6aR)-6-hydroxyhexahydrofuro[3,2-b]furan-3-yl)oxy)ethyl)-N,N-dimethylprop-2-yn-1-aminium trifluoroacetate]

Structure (SMILES): C#CC[N+](C)(C)CCO[C@@H]1O[C@H](COC(C)=O)[C@@H](OC(C)=O)[C@H](OC(C)=O)[C@H]1OC(C)=O.[I-] [Compound 7, N,N-dimethyl-N-(2-(((2R,3R,4S,5R,6R)-3,4,5-triacetoxy-6-(acetoxymethyl)tetrahydro-2H-pyran-2-yl)oxy)ethyl)prop-2-yn-1-aminium Iodide]
IC50 [4]: 3.16 µM | % change from vehicle control + choline diet (CutC/D enzyme; Table 4a, 358 mg/kg oral gavage days 1-3): −79.95% | Mean plasma TMAO (CutC/D enzyme; Table 4a, 358 mg/kg oral gavage days 1-3, plasma 20 h after last gavage): 6.90 µM | % change from vehicle control + choline diet (CutC/D enzyme; Table 4c, 35.8 mg/kg oral gavage days 1-3): −2.97% | Mean plasma TMAO (CutC/D enzyme; Table 4c, 35.8 mg/kg oral gavage days 1-3, plasma 20 h after last gavage): 20.4 µM | % change from vehicle control + choline diet (CutC/D enzyme; Table 4c, 107 mg/kg oral gavage days 1-3): −24.83% | Mean plasma TMAO (CutC/D enzyme; Table 4c, 107 mg/kg oral gavage days 1-3, plasma 20 h after last gavage): 15.8 µM | % change from vehicle control + choline diet (CutC/D enzyme; Table 4c, 358 mg/kg oral gavage days 1-3): −69.46% | Mean plasma TMAO (CutC/D enzyme; Table 4c, 358 mg/kg oral gavage days 1-3, plasma 20 h after last gavage): 6.41 µM | Cmax (in vivo; iv, 1 mg/kg): 19.7 µM | Cmax (in vivo; po, 10 mg/kg): 0.0162 µM | bioavailability (in vivo; po, 10 mg/kg): 1.1% | Papp A→B at 2 h, 1 µM [5]: 0.1 ×10⁻⁶ cm/s | Papp B→A at 2 h, 1 µM [5]: 0.15 ×10⁻⁶ cm/s
